Measurements from ChEMBL document CHEMBL1122552, “Synthesis and biological evaluation of 6-amino-1H-pyrrolo[3,2-c]pyridin-4(5H)-one (3,7-dideazaguanine)” (1984).
Converted amounts (≈) assume the structure as drawn.

These molecules were tested on Vaccinia virus (assay: The minimum inhibitory concentration required to reduce vaccinia virus induced cytopathogenicity in primary rabbit kidney cells by 50%). Conditions: Orthopoxvirus vaccinia.
Assay type: functional
With `Nc1cc2[nH]ccc2c(O)n1` the MIC was 400 µg/mL (≈ 2680 µM). `Nc1ncnc2c1ncn2C[C@H](O)CO` [(S)-DHPA] showed an MIC of 10 µg/mL (≈ 47.8 µM). Molecule `Nc1cc2[nH]cnc2c(=O)[nH]1` [DEZAGUANINE] has an MIC of 0.1 µg/mL (≈ 0.666 µM). In the case of `NC(=O)c1ncn([C@@H]2O[C@H](CO)[C@@H](O)[C@H]2O)n1` [RIBAVIRIN], the MIC is reported as 40 µg/mL (≈ 164 µM).
